The test system of the assay is jejunum of the dog. The assay can be described thus: Intestinal Motility in Dogs (balloon at the jejunum, inhibition of motility in anesthetized mongrel dogs). The assay is classed as in vivo. The procedure: Intestinal Motility in Dogs Method: Mongrel dogs weighing 8 to 16 kg which were withheld from any food and water for 24 hours were anesthetized with a combination of urethane (1.5 g/kg) and morphine (15 mg/kg). A balloon was placed at the jejunum of the dog, compressed at a pressure of 10 cm. H2 O, and connected to a strain gauge. Changes in the motility were mainly recorded in terms of amplitude, but taking account of the number of movements. The maximum change of all the determinations, served as the calculation of the 50% inhibition dose (ED50). The time required for 80% recovery was considered as a duration of action.

The text below walks through data of patent publication US4096263A, “1,2,3,4-Tetrahydroisoquinolines and the preparation thereof” (Fujisawa Pharmaceutical Co., Ltd., priority 1975, dated 1978).

Structures can show the parent of a compound that is named as a salt.

Turning to `Cn1nnnc1NCC1NCCc2cc(O)c(O)cc21` (centres unmarked) [Test Compound, 1-(1-Methyl-1H-tetrazol-5-yl)aminomethyl-6,7-dihydroxy-1,2,3,4-tetrahydroisoquinoline hydrochloride trihemihydrate], the ED50 (Canis lupus familiaris, anesthetized mongrel dogs (urethane 1.5 g/kg and morphine 15 mg/kg), jejunal balloon at 10 cm. H2O, maximum change of motility, mainly amplitude, route not stated, read-out: ED50 (50% inhibition dose)) amounted to 1 µg/kg. Besides, the “Duration of Action” value (time required for 80% recovery, anesthetized mongrel dogs, jejunal balloon, dose and route not stated) stood at 25 min.

The ED50 is the dose that gives a 50% effect, or the effect in half of the subjects.
